The values that follow are results of earlier work, collected in patent publication US20140363510A1, “PHARMACEUTICAL COMPOSITION INCLUDING PIMOBENDAN” (BOEHRINGER INGELHEIM VETMEDICA GMBH, priority 2004, published 2014).

`COc1ccc(-c2nc3ccc(C4=NNC(=O)CC4C)cc3[nH]2)cc1` (centres unmarked) [Pimobendan, 4,5-dihydro-6-[2-(4-methoxyphenyl)-1H-benzimidazol-5-yl]-5-methyl-3(2H)-pyridazone]: under “aqueous media, pH-dependent”, the “solubility in aqueous media” value was “low solubility in aqueous media and a very highly pH-dependent solubility”. For the same molecule, where the note is “water”, the solubility in water entry was “hardly dissolves in water”.
